In the case of `CC(=O)N1CSCC1C(=O)O` (stereo not drawn), the melting point (commonly the temperature of the solid-liquid transition) is 111 to 113 °C.

`CC(=O)NCCNC(=O)c1ccccc1N`: the melting point lay in the range of 128 to 130 °C.

`CCOC(=O)Cc1nn[nH]n1`: the melting point fell in the range of 120 to 127 °C.

Consider `N#Cc1ccc(-c2nnco2)cc1`, for which the melting point was in the range of 142 to 144 °C.

Take `Cc1cccc(C)c1C=O`: the melting point lay within 27 to 30 °C.

For the compound `O=C(O)c1c[nH]c(Br)c1`, the melting point was in the range of 119 to 121 °C.

The compound `NC(=O)Nc1cccc(C(=O)O)c1` returned a melting point of 269 to 271 °C.

Regarding `Cn1cc(C(=O)c2cccc(F)c2)cn1`, the melting point was 103 to 105 °C.

For the compound `O=C(O)C1CSC(c2ccsc2)N1` (stereo not drawn), the melting point lay in the range of 144 to 146 °C.

`CC(C)(C)C(=O)COc1ccc([N+](=O)[O-])cc1Cl`: the melting point lay in the range of 114 to 116 °C.

Regarding `O=C(CC1CCCC1)c1ccc(Oc2ccccc2)cc1`, the melting point was 30 to 32 °C.

As for `O=C(O)c1ccc(Br)cc1Oc1ccc(F)cc1`, the melting point was in the range of 187 to 189 °C.

On to `CN(C)C(=O)Cn1ccc2cc(N)ccc21`, for which the melting point lay within 124 to 126 °C.

On to `O=C(O)CNC(=O)c1ccc(Br)cc1`, for which the melting point lay within 160 to 162 °C.

`CC(C)(C)C(=O)Nc1nccnc1C(=O)O` gave a melting point of 96 to 98 °C.

Consider `Cc1ccc(/C=C/C(=O)O)c(C)c1`, for which the melting point is 182 to 184 °C.

For the compound `Fc1ccccc1-n1cnnc1S`, the melting point was 167 to 169 °C.

As for `NS(=O)(=O)c1ccc(NCCC(=O)O)c([N+](=O)[O-])c1`, the melting point fell in the range of 175 to 177 °C.

Compound `NNC(=O)Nc1ccc(CCO)cc1` had a melting point of 149 to 151 °C.

Take `COC(=O)C(C)NC(=O)c1ccc(Cl)c([N+](=O)[O-])c1` (stereo not drawn): the melting point lay within 102 to 104 °C.

The compound `Cc1cc(C(=O)O)c2c(C)nn(C)c2n1` displayed a melting point of 262 to 264 °C.

In the case of `N#Cc1ccc(NC(=O)CCCl)cc1Cl`, the melting point was in the range of 156 to 158 °C.

As for `COC(=O)c1sc2ncc(C=O)cc2c1C`, the melting point was in the range of 199 to 201 °C.

As for `OCc1ncn(-c2ccccc2)n1`, the melting point lay within 109 to 111 °C.

`O=C(O)Cc1coc2cc3c(cc12)CCC3`: the melting point lay in the range of 151 to 153 °C.

The compound `COc1ccc(CNC(=O)n2ccnc2)cc1OC` showed a melting point of 136 to 138 °C.

The compound `NC(=S)c1cccnc1N1CCNC(=O)C1` returned a melting point of 189 to 191 °C.

For the compound `CC(C)NS(=O)(=O)c1ccc(F)c(C(=O)O)c1`, the melting point fell in the range of 167 to 169 °C.

Compound `O=C(O)c1csc(S(=O)(=O)N2CCc3ccccc3C2)c1` returned a melting point of 232 to 234 °C.

The compound `Cc1c(C(=O)O)nnn1-c1ccccc1` showed a melting point of 110 to 112 °C.

Consider `COc1ccc2oc(C(=O)O)c(C)c2c1`, for which the melting point lay in the range of 202 to 204 °C.

On to `Cc1nc(N)nc(C2CC2)n1`, for which the melting point was 114 to 116 °C.

Compound `Clc1nc(-c2cccnc2)nc2sc3c(c12)CCCC3` had a melting point of 137 to 139 °C.

Take `Cc1ccc(C(C)C)c(OC(C)C(=O)O)c1` (stereo not drawn): the melting point is 61 to 63 °C.

With `Sc1nc(/C=C/c2ccccc2)n[nH]1`, the melting point fell in the range of 277 to 279 °C.

In turn, `Cc1nc(-c2nnc[nH]2)sc1C(=O)O` yielded a melting point of 286 to 288 °C.

On to `CC(C)(C)OC(=O)NNC(=O)OC(C)(C)C`, for which the melting point is 123 to 126 °C.

In the case of `O=C1CC(c2ccccn2)CN1` (stereo not drawn), the melting point was 79 to 81 °C.

Regarding `CCCCn1c(SCC(=O)O)nc2cc(C(F)(F)F)ccc21`, the melting point is 120 to 122 °C.

`O=C(NC1CC1)c1ccc(Cl)c([N+](=O)[O-])c1`: the melting point was in the range of 130 to 132 °C.

Compound `CCCc1cc(C(=O)O)[nH]n1` returned a melting point of 169 to 171 °C.

In turn, `COC(=O)c1cc(CCl)c(C)s1` had a melting point of 54 to 56 °C.

Compound `Cc1cc(C)cc(OCCC(=O)O)c1` returned a melting point of 88 to 90 °C.

In turn, `NCc1ccc(N2CCCC(C(N)=O)C2)cc1` (stereo not drawn) yielded a melting point of 169 to 171 °C.

Regarding `Cc1n[nH]c(C(F)(F)Cl)c1C(=O)O`, the melting point was 260 to 262 °C.

Turning to `N#Cc1cc(C(=O)C(Cl)(Cl)Cl)c[nH]1`, the melting point was in the range of 129 to 131 °C.

Regarding `NC(=NOC(=O)CCCCl)c1cccs1`, the melting point was 144 to 146 °C.

In turn, `Nc1ccc(-c2nnc[nH]2)cc1` displayed a melting point of 203 to 205 °C.

`Cc1cc(N)cc2[nH]ncc12`: the melting point fell in the range of 179 to 181 °C.

`O=C(O)C1CCN(C(=O)C2CC2)CC1` showed a melting point of 211 to 213 °C.

For `O=S1(=O)CCC(NC2CCNCC2)C1` (stereo not drawn), the melting point lay within 84 to 86 °C.

Compound `COC(=O)c1ccccc1CS(=O)(=O)Cl` displayed a melting point of 85 to 87 °C.

`Cc1ccnc2[nH]c(CCl)nc12` gave a melting point of 274 to 276 °C.

Compound `NCCNC(=O)c1ccc(Br)cc1` came in with a melting point of 38 to 40 °C.

`CC(C)(C)c1ccc(N2CCC(=O)CC2)cc1` returned a melting point of 69 to 71 °C.

Turning to `CNC(=O)c1ccc(Cl)c(N)c1`, the melting point was 144 to 146 °C.

`Cc1noc(-c2ccc(N)c(Cl)c2)n1` returned a melting point of 141 to 143 °C.

In turn, `COC(=O)C(O)c1cc(Cl)cc(Cl)c1` (stereo not drawn) showed a melting point of 80 to 82 °C.

Compound `COC(=O)c1cnc(Cl)c(S(=O)(=O)N2CCOCC2)c1` came in with a melting point of 132 to 134 °C.

For the compound `Cc1ccc(Cn2c(N)cc(=O)[nH]c2=O)cc1`, the melting point lay in the range of 279 to 281 °C.

Consider `CC(C)(C)OC(=O)NC1C2CCC(C2)C1C(=O)O` (stereo not drawn), for which the melting point lay in the range of 140 to 142 °C.

`CCOc1ccc(C(C)=O)cc1CN1CCCCC1` showed a melting point of 33 to 37 °C.

As to `CCNC1=NCC(c2ccccc2)S1` (stereo not drawn), the melting point was in the range of 99 to 101 °C.

On to `O=c1[nH]nc2ccc(Cl)nn12`, for which the melting point is 269 to 271 °C.

On to `O=C1NC(=O)N(Cc2cccs2)C1=O`, for which the melting point fell in the range of 170 to 172 °C.

For the compound `Nc1cc(-c2cccnc2)no1`, the melting point was in the range of 174 to 176 °C.

`Cc1ccc(S(=O)(=O)OC2CCS(=O)(=O)C2)cc1` (stereo not drawn) came in with a melting point of 80 to 82 °C.

With `Cn1cc(S(N)(=O)=O)cn1`, the melting point fell in the range of 121 to 123 °C.

Compound `N#Cc1cc(Br)cs1` showed a melting point of 47 to 49 °C.

Compound `CCC(=O)N(c1nnc(S)s1)C1CC1` showed a melting point of 195 to 197 °C.

As for `CN1CCCC1C(=O)O` (stereo not drawn), the melting point lay in the range of 111 to 113 °C.

In turn, `O=C1CCOc2c1cc(Br)cc2[N+](=O)[O-]` showed a melting point of 104 to 106 °C.

As for `CC(C)n1ncc(C(=O)O)c1C1CC1`, the melting point was in the range of 99 to 101 °C.

Regarding `Nc1c(C(=O)O)[nH]c(=O)[nH]c1=O`, the melting point lay within 300 to 302 °C.

Compound `CC(NS(=O)(=O)c1ccccc1C(F)(F)F)C(=O)O` (stereo not drawn) had a melting point of 105 to 107 °C.

Turning to `CNS(=O)(=O)c1ccc(/C=C/C(=O)O)cc1`, the melting point was 259 to 261 °C.

On to `Nc1cc(-c2cc(F)cc(F)c2)[nH]n1`, for which the melting point was in the range of 110 to 112 °C.

`O=C(O)COc1ccc(S(=O)(=O)Cl)cc1Cl` registered a melting point of 123 to 125 °C.

In turn, `COc1ncccc1NC(=O)OCC(F)(F)F` gave a melting point of 44 to 46 °C.

As to `COc1ccc2nc(Cl)ccc2c1S(=O)(=O)Cl`, the melting point fell in the range of 136 to 138 °C.

`C#CCN1C(=O)C(=O)c2ccccc21` gave a melting point of 153 to 155 °C.

`CN1CCN(CCC(=O)NN)CC1` showed a melting point of 87 to 89 °C.

Compound `CC(=O)N(c1ccc(C(F)(F)F)cc1)c1nc(CCl)cs1` came in with a melting point of 115 to 117 °C.

`COc1ccccc1N(C)S(=O)(=O)c1ccc(C)c(C(=O)O)c1` yielded a melting point of 153 to 155 °C.

The compound `NC(=O)CCSc1ccccc1F` had a melting point of 84 to 86 °C.

With `O=C(O)c1ccccc1OCc1ccccc1Br`, the melting point lay in the range of 129 to 131 °C.

The compound `CN(C)C(=O)c1ccc2c(c1)CCN2` came in with a melting point of 156 to 158 °C.

`COC(=O)c1cccc(C)c1C#N` showed a melting point of 69 to 71 °C.

Take `Cn1cc(-c2cccc(CN)c2)cn1`: the melting point lay within 69 to 71 °C.

`NNC(=O)CCSc1ccc(F)cc1` registered a melting point of 98 to 100 °C.

Regarding `Cn1cc(CCC(=O)O)cn1`, the melting point is 137 to 139 °C.

Compound `COC(=O)c1sccc1N=[N+]=[N-]` came in with a melting point of 69 to 71 °C.

The compound `O=C1CN=C(S)N1Cc1ccccc1` yielded a melting point below 17 °C.

Consider `NCCN1C(=O)C2C3C=CC(C3)C2C1=O` (stereo not drawn), for which the melting point fell in the range of 69 to 71 °C.

In turn, `Nc1cc(F)cc(S(N)(=O)=O)c1` had a melting point of 153 to 155 °C.

Compound `CN(C)c1ncnc(Cl)c1C=O` showed a melting point of 141 to 143 °C.

Compound `Fc1ccc(CNc2nc3ccccc3s2)cc1` registered a melting point of 155 to 157 °C.

In turn, `COc1ccccc1Nc1nc(-c2ccc(C)cc2)cs1` showed a melting point of 143 to 145 °C.

Compound `Nc1nc(-c2c(F)cccc2F)co1` displayed a melting point of 139 to 141 °C.

The compound `Cc1cccc(CNC(=O)CCl)c1` had a melting point of 71 to 73 °C.

The compound `NC(=O)CNS(=O)(=O)c1c[nH]c(C(=O)O)c1` had a melting point of 239 to 241 °C.

For the compound `NCc1ccc(-c2ccncc2)cc1`, the melting point lay in the range of 64 to 66 °C.

Compound `O=C1NCCCc2cc(O)ccc21` showed a melting point of 219 to 221 °C.

Take `O=C(O)/C=C/c1cn(-c2ccccc2)nc1-c1ccc(Cl)s1`: the melting point fell in the range of 200 to 202 °C.

`Cc1cc(N)n(-c2ccc(F)cc2)n1` yielded a melting point of 109 to 111 °C.

As for `CC(C)CC(=O)Nc1ccccc1C(=O)O`, the melting point was 121 to 123 °C.

For the compound `CS(=O)(=O)CCC(=O)O`, the melting point was in the range of 100 to 102 °C.

`O=C(O)c1ccccc1OCc1cccnc1`: the melting point was 160 to 162 °C.

Compound `O=C(O)c1c[nH]cc1C1CC1` gave a melting point of 150 to 152 °C.

With `Cc1nc2sccn2c1C=O`, the melting point was in the range of 94 to 96 °C.

`Oc1ccc2cn[nH]c2c1` came in with a melting point of 189 to 191 °C.

For the compound `CCN(CC)Cc1ccc(C(=O)O)cc1`, the melting point lay in the range of 154 to 156 °C.

With `O=C1OCCN1c1ccc(Cl)c([N+](=O)[O-])c1`, the melting point was in the range of 163 to 165 °C.

`CC(Sc1ccnc2cc(Cl)ccc12)C(=O)O` (stereo not drawn) had a melting point of 201 to 203 °C.

As for `O=C(O)C1(c2ccc(F)cc2F)CCOCC1`, the melting point fell in the range of 134 to 136 °C.

Compound `CCOC(=O)c1sc(N)c(C#N)c1CBr` gave a melting point of 206 to 208 °C.

As for `N#Cc1cccc(OCCCCC(=O)O)c1`, the melting point fell in the range of 78 to 80 °C.

`CS(=O)(=O)c1cc(C#N)ccn1` displayed a melting point of 143 to 145 °C.

The compound `CC(C)(C)C(=O)Nc1ccc(F)c(C(=O)O)c1` returned a melting point of 179 to 181 °C.

As to `Cc1ccc(Cl)c2ccc(N)nc12`, the melting point was in the range of 104 to 106 °C.

Compound `O=C(O)C1CCCSC1` (stereo not drawn) returned a melting point of 76 to 78 °C.

`CC(C)(C)c1ccc(S(N)(=O)=O)s1` had a melting point of 80 to 82 °C.

`O=C(O)c1coc(Br)c1`: the melting point was 133 to 135 °C.

For the origin of these results see a melting point compilation (Tetko et al.).
